Assay results taken from patent US11571378B2, “Skin care composition and method of using the same” (The Procter & Gamble Company, priority 2021, dated 2023).
No end group written: not given here.

Assays:
[1] = tested on: MSMO1 [SEQ ID NO: 3]; test: Gene Modulation Assay, MSMO1 expression (qPCR); format: cell-based
Description: (§1) This method provides a way to measure the ability of a compound or material to modulate the expression of a target gene such as PPARA [SEQ ID NO: 2] or MSMO1 [SEQ ID NO: 3]. • Cells: tert keratinocytes (tKC)
(§2) BJ Fibroblasts • Plating: Cells are plated the day before treatment. • For tert keratinocytes: 100,000 cells/well in 2 ml volume of medium/well for 12-well plates (e.g., Collagen I coated plates, Corning cat #356500), or 50,000 cells/well in 1 ml volume of medium/well for 24-well plates. • For BJ fibroblasts: 88,000 cells/well in 2 ml volume of medium/well for 12-well plates (e.g., Corning cat #3512), or 44,000 cells/well in 1 ml volume of medium/well for 24-well plates. • Medium: For tert keratinocytes: EpiLife (e.g., Thermo Fisher Scientific cat #MEPI500CA+HKGS (e.g., Thermo Fisher Scientific cat #S-001-5). • For BJ Fibroblasts: EMEM (e.g., ATCC cat #30-2003)+10% FBS (e.g., HyClone cat #SH30071.02).
(§3) Treatments are made in media and aliquoted to dose plates. When it is time to treat cells, all plates of cells are removed from the incubator at the same time. Working with one plate at a time, media is removed and treatment is added, as follows: • Media is decanted from plate of cells. • Inverted plate is blotted briefly on paper towels. • Lid is put back onto plate and plate is moved into biosafety cabinet. • Treatments are transferred from dose plate to plate of cells, one column at a time, using a multichannel pipette. Once all plates have been treated, they are moved into incubator at 37° C., with 5% CO2 and 90% humidity. About 15-30 min before the end of the treatment period, cells from representative wells of each treatment are observed via microscope, then plates are returned to the incubator. When treatment time is complete, all plates are removed from incubator. Media is decanted from each plate, and plates are blotted on paper towels. 350 ul Qiagen Buffer RLT is added to each well to lyse cells, and lysates are transferred to 2 ml Eppendorf tubes and stored at −20° C. until ready for genomics.
(§4) Cell lysates are thawed at 4° C. and then isolated using the Biomek FxP and the RNAdvance Tissue Isolation kit (Beckman Coulter, p/n A32646). The resulting RNA is quantified using the Nandrop 8000 (Nanodrop, ND-8000). cDNA is generated using 500 ng of Total RNA and Applied Biosystems High Capacity cDNA with Reverse Transcription kit (Applied Biosystems p/n 4368814). cDNA, assays, and dilutions of PrimeTime GeneExpression MasterMix (IDT, p/n ? ) are plated onto a Wafergen MyDesign SmartChip (TakaraBio, p/n 640036) using the Wafergen Nanodispenser. The chip is then loaded into the SmartChip cycler and qPCR performed using the following PCR conditions:
(§5) Hold stage: 50° C. for 2 minutes (warm up), then 95° C. for 10 minutes.
(§6) PCR stage (40 cycles): 95° C. for 15 seconds, then 60° C. for 1 minute. Export data in .txt file format for analysis.
(§7) Test compositions and control compositions were prepared as described above in the Gene Modulation Assay and tested accordingly. The pal-KT used in this example is PALESTRINA brand pal-KT from Sederma (France), and the ac-PPYL is SYNIORAGE brand tetrapeptide from BASF Care Creations (New Jersey). P+A refers to the combination of pal-KT (P), and ac-PPYL (A) [SEQ ID NO: 1].
(§8) Synergy Factor is calculated as: […]
(§9) A synergy factor greater than 1.00 with p-value ≤0.05 indicates a statistically significant synergistic effect. Preferred synergy factors are 1.3 or greater.
(§10) In this test, the amino acids from pal-KT were rearranged to form a new dipeptide, pal-TK. Test compositions and control compositions were prepared as described above in the Gene Modulation Assay and tested accordingly. Fold change factor is calculated as.
(§11) [formula] A fold change factor of greater than 1 is desired, and a fold change factor of 1.3 or greater is preferred.

[2] = tested on: PPARA [SEQ ID NO: 2]; test: Gene Modulation Assay, PPARA expression (qPCR); format: cell-based
Description: as §1, §2, §3, §4, §5, §6, §7, §8, §9, §10, §11

[3] = pal-KT + ac-PPYL relative to pal-TK + ac-PPYL, all peptides at 1 ppm

| Substance | Fold change vs. control, Ac-PPYL ([1]; Ac-PPYL 0.0135 ppm alone) | Fold change vs. control, Ac-PPYL ([1]; Ac-PPYL 1 ppm alone) | Fold change vs. control, Ac-PPYL ([1]; Ac-PPYL 13.5 ppm alone) | Fold change vs. control, Ac-PPYL ([1]; Ac-PPYL 40.5 ppm alone) | Fold change vs. control, Ac-PPYL ([2]; Ac-PPYL 0.0135 ppm alone) | Fold change vs. control, Ac-PPYL ([2]; Ac-PPYL 1 ppm alone) | Fold change vs. control, Ac-PPYL ([2]; Ac-PPYL 13.5 ppm alone) | Fold change vs. control, Ac-PPYL ([2]; Ac-PPYL 40.5 ppm alone) | Fold change vs. control, Pal-KT ([1]; Pal-KT 1 ppm alone) | Fold change vs. control, Pal-KT ([1]; Pal-KT 7.5 ppm alone) | Fold change vs. control, Pal-KT ([1]; Pal-KT 15 ppm alone) | Fold change factor [1, 3] | Fold change vs. control, Pal-KT ([2]; Pal-KT 1 ppm alone) | Fold change vs. control, Pal-KT ([2]; Pal-KT 7.5 ppm alone) | Fold change vs. control, Pal-KT ([2]; Pal-KT 15 ppm alone) | Fold change factor [2, 3] |
| --- | --- | --- | --- | --- | --- | --- | --- | --- | --- | --- | --- | --- | --- | --- | --- | --- |
| acetyl tetrapeptide-11 (Ac-PPYL) [acetylated tetrapeptide ac-PPYL, available as SYNIORAGE from BASF Care Creations] | 0.377 | 0.496 | 0.510 | 0.560 | 0.70 | 0.69 | 0.67 | 0.71 |  |  |  |  |  |  |  |  |
| palmitoyl dipeptide-7 [Pal-KT] |  |  |  |  |  |  |  |  | 4.32 | 4.69 | 5.63 | greater than 1.3 | 1.26 | 1.43 | 1.59 | greater than 1.3 |
